As a reminder, the IC50 is the point on the concentration scale where inhibition reaches its midpoint. A low value points to greater potency in that assay.

We go through twelve compounds from patent US11786534B2 (TAIHO PHARMACEUTICAL CO., LTD., priority 2019, dated 2023).

The target in test [1] is T1, human EGFR (d746-750/T790M/C797S) (Homo sapiens, UniProt P00533, C797S/DEL746-750/T790M).
T1 construct: made in house; host or cells: Sf9 insect cells, baculovirus
As to the kind of experiment: Inhibitory activity against EGFR (d746-750/T790M/C797S) kinase. Type of test: biochemical. The settings on record: Test Example 1, Table 2; ATP 6 μM, 25° C., 120 minutes. The method, boiled down: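 GST-fused cytoplasmic domain of human EGFR d746-750/T790M/C797S (Sf9-expressed) was incubated with 250 nM biotinylated peptide, 6 μM ATP, 10 mM MgCl2 and 10 mM MnCl2 (2.5% DMSO) for 120 min at 25 °C. After an EDTA stop, phosphotyrosine was detected by Eu-PT66/SureLight APC-SA TR-FRET (665/620 nm, excitation 337 nm). Background wells received EDTA before enzyme.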

Test [2] concerns the target Ba/F3-EGFR (d746-750/T790M/C797S) (Homo sapiens, UniProt P00533, DEL746-750/T790M/C797S, cells depend on it). Nature of the test: Growth inhibition of cell line expressing EGFR (d746-750/T790M/C797S). It counts as cell-based, mouse. The settings on record: read-out: BaF3_EGFR (d746-750/T790M/C797S) IC50 value. The text has this: (§1) Test for inhibitory activity against the growth of cell lines expressing wild-type and mutated EGFRs (in vitro)
(§2) (1) Mouse cell line Ba/F3-EGFR (d746-750/T790M/C797S) transfected with and stably expressing EGFR (d746-750/T790M/C797S), mouse cell Ba/F3-EGFR (L858R/T790M/C797S) transfected with and stably expressing EGFR (L858R/T790M/C797S), and mouse cell line Ba/F3-EGFR (WT) transfected with and stably expressing wild-type EGFR were each suspended in RPMI-1640 cell culture medium (RPMI-1640, 10% FBS, 100 unit/ml penicillin, 0.1 mg/ml streptomycin). In the case of the mouse cell line Ba/F3-EGFR (WT), RPMI-1640 cell culture medium containing EGF at a final concentration of 50 ng/ml was used to suspend this cell line. It should be noted that the mouse cell line Ba/F3-EGFR (d746-750/T790M/C797S) transfected with and stably expressing EGFR (d746-750/T790M/C797S), the mouse cell line Ba/F3-EGFR (L858R/T790M/C797S) transfected with and stably expressing EGFR (L858R/T790M/C797S) and the mouse cell line Ba/F3-EGFR (WT) transfected with and stably expressing wild-type EGFR were prepared by using nucleotide sequences encoding the proteins of SEQ ID NOs: 1 and 2 in accordance with Test Example 1 in WO2018/079310, These cell suspensions were seeded in wells of 96-well flat -bottomed plates. The compounds of the present invention were dissolved in DMSO, and serial dilutions of these test compounds were prepared with DMSO (1000-fold of the final concentration). Each test compound solution in DMSO or DMSO alone was diluted with RPMI-1640 cell culture medium for each cell line, and this dilution was added to wells of the cell culture plate such that the final concentration of DMSO was 0.1%, followed by culture at 37° C. for 3 days in a 5% carbon dioxide gas-containing incubator. Before and after addition of each test compound solution in DMSO, the number of cells was counted using the CellTiter-Glo® system (Promega) on the basis of the protocol recommended by Promega.
(§3) In each cell line, the rate of cell growth inhibition was calculated according to the equation shown below in wells to which each test compound was added at different concentrations. Moreover, the inhibition rate at each concentration was plotted for each test compound, and the concentration of each test compound required to give 50% cell survival rate, i.e., IC50 (nM) was determined by curve fitting software XLfit (IDBS).
(§4) Cell survival rate (%)=T/C×100
(§5) T: emission intensity in a well cultured for 3 days after addition of a test compound solution
(§6) C: emission intensity in a well cultured for 3 days after addition of DMSO
(§7) In accordance with the same procedures as shown in Test Example 2, the compounds of the present invention were tested for their inhibitory activity against the growth of the cell hoes expressing wild-type and mutated EGFRs.

Test [3] addresses Ba/F3-EGFR (L858R/T790M/C797S) (Homo sapiens, UniProt P00533, T790M/C797S/L858R, cells depend on it). As to the kind of experiment: Growth inhibition of cell line expressing EGFR (L858R/T790M/C797S). The settings on record: read-out: BaF3_EGFR (L858R/T790M/C797S) IC50 value. Type of test: cell-based, mouse.
Description: as §1, §2, §3, §4, §5, §6, §7

In the next test the target is Ba/F3-EGFR (WT) (Homo sapiens, UniProt P00533). As to the kind of experiment: Growth inhibition of cell line expressing wild-type EGFR. It counts as cell-based, mouse. The conditions noted are these: read-out: BaF3_EGFR (WT) IC50 value.
Description: as §1, §2, §3, §4, §5, §6, §7

Setting [4] is: Test Example 4, Table 13, same procedures as Test Example 2.
Where [5] appears, read: Test Example 2, Table 7, culture 3 days, CellTiter-Glo.
The mark [6] stands for this setting: Test Example 2, Table 7, culture 3 days, EGF 50 ng/ml, CellTiter-Glo.

The structures appear in SMILES notation. Where two headings read alike, the source gives them in different places. Where only a bound is given, the exact number is not on record here.

T1 sequence (P00533 with tags, fused parts or gaps DEL746-750/T790M/C797S): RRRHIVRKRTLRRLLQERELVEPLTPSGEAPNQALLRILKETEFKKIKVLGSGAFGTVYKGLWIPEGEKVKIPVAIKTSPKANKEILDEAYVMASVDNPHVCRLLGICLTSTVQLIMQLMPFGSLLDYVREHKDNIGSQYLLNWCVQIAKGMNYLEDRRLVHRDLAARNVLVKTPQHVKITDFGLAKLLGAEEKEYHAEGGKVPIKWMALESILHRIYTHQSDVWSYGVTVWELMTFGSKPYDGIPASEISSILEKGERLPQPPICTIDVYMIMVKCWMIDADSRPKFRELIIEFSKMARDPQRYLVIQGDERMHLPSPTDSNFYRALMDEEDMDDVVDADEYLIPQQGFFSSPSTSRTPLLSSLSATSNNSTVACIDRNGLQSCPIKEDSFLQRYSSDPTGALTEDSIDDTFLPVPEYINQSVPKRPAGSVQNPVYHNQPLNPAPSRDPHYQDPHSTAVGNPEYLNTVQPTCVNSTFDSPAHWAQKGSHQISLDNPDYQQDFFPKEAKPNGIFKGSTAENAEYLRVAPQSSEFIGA
Chain of Ba/F3-EGFR (WT) (P00533 whole entry, change not shown): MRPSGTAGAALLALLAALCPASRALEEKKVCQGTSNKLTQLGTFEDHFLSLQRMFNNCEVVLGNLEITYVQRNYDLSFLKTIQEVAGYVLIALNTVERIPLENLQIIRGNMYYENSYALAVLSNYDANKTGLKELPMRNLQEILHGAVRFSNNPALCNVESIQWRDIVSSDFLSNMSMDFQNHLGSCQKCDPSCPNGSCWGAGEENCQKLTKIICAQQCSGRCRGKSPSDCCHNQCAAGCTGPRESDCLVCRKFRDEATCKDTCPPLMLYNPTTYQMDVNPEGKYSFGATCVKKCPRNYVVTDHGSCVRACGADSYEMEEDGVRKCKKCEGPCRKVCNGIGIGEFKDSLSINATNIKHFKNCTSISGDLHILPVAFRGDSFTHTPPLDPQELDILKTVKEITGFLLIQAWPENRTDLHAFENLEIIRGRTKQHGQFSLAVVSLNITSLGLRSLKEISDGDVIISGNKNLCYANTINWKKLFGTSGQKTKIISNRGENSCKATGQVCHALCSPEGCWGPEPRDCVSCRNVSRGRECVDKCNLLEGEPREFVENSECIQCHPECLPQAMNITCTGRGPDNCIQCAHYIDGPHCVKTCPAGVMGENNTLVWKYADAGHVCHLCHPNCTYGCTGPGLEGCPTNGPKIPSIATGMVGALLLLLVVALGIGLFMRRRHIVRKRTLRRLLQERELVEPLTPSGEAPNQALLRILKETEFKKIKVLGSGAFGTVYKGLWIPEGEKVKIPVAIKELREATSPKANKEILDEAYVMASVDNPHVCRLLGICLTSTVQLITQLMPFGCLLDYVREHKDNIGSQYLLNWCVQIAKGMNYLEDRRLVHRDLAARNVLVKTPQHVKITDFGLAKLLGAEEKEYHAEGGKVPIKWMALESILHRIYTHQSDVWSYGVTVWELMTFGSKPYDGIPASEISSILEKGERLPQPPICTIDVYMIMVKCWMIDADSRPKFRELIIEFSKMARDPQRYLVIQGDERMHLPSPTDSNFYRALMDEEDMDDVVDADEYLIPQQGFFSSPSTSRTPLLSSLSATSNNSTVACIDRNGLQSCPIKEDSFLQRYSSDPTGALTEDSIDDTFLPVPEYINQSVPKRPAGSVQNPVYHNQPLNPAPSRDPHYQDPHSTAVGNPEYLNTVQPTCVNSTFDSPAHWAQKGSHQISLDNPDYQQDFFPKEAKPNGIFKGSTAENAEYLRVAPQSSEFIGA
Chain of Ba/F3-EGFR (L858R/T790M/C797S) (P00533 whole entry T790M/C797S/L858R): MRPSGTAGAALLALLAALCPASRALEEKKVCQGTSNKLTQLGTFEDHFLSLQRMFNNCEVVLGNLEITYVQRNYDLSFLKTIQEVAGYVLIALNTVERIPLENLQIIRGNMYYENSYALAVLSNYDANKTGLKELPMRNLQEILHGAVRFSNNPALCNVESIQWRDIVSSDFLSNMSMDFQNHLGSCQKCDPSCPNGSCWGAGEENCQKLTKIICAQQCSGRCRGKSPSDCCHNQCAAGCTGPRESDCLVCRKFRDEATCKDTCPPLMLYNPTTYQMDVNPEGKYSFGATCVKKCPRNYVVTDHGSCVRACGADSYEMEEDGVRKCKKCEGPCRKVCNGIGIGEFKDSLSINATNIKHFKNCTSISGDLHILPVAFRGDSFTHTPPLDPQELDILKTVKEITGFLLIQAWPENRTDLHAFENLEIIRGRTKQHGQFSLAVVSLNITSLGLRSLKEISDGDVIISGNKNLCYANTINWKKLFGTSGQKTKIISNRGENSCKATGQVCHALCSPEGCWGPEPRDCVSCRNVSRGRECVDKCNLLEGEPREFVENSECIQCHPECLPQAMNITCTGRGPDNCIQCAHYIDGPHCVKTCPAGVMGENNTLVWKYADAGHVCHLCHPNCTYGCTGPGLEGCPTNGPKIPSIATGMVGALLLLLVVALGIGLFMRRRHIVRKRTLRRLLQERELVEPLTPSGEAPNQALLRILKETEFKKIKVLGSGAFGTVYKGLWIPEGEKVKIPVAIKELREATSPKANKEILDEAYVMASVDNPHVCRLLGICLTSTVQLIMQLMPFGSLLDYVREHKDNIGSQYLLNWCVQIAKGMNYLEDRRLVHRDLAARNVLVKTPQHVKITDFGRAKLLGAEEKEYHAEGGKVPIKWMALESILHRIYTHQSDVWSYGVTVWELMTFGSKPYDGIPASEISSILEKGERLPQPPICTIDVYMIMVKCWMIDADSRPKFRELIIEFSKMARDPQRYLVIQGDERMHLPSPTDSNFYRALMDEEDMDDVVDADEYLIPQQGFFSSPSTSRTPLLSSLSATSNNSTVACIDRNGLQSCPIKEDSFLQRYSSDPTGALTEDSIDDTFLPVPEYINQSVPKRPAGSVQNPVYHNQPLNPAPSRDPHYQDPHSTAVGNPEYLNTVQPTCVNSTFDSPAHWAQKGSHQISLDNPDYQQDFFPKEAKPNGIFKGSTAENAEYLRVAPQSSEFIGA
Chain of Ba/F3-EGFR (d746-750/T790M/C797S) (P00533 with tags, fused parts or gaps DEL746-750/T790M/C797S): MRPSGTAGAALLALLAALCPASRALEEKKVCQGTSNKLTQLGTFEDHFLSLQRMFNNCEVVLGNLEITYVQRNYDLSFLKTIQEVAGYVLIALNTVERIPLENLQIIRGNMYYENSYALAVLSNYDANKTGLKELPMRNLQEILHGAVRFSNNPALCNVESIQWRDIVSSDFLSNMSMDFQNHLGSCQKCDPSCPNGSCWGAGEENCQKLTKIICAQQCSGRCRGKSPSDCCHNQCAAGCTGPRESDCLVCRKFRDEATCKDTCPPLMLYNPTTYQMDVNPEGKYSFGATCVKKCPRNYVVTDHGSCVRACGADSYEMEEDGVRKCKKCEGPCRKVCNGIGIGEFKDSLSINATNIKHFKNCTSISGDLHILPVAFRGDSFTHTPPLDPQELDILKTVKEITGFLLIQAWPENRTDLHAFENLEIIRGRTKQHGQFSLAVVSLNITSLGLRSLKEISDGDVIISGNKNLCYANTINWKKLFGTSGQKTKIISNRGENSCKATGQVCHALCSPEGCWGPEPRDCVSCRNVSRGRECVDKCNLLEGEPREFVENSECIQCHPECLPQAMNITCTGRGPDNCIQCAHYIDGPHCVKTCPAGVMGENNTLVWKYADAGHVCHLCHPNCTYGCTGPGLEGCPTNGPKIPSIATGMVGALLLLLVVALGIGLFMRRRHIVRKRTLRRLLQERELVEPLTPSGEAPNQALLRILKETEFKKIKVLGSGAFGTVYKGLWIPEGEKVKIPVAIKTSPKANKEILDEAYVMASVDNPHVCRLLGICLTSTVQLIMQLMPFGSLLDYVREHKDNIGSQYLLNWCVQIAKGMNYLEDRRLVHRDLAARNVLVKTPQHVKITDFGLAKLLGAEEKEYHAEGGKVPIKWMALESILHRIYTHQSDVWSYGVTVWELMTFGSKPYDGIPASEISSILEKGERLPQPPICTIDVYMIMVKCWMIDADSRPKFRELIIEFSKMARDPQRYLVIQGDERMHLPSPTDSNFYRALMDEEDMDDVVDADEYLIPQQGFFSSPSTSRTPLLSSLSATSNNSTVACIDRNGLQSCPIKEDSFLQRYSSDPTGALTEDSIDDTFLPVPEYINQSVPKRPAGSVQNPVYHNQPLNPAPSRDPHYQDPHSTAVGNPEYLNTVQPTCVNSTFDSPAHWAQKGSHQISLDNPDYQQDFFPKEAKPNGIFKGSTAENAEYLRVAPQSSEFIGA

On to `C#Cc1c(-c2cnc3ccccc3c2)c2c(N)ncnc2n1C12CCC(NC(=O)c3ccnn3C3CC3)(CC1)C2` [Example 20, N-(4-(4-Amino-6-ethynyl-5-(quinolin-3-yl)-7H-pyrrolo[2,3-d]pyrimidin-7-yl)bicyclo-[2.2.1]heptan-1-yl)-1-cyclopropyl-1H-pyrazole-5-carboxamide], for which the concentration for half-maximal inhibition (IC50) in test [1] is less than 0.3 nM. Also, the GI50 in test [2] (setting [4]) was found to be 31 nM; in test [3] (setting [4]), 245 nM; on Ba/F3-EGFR (WT) (setting [4]), 2650 nM.

For `C=CC(=O)N1CC[C@@H](n2cc(-c3cnc4ccccc4c3)c3c(N)ncnc32)C1` [Comparative Example A, (R)-1-(3(4-Amino-5-(quinolin-3-yl)-7H-pyrrolo[2,3-d]pyrimidin-7-yl)pyrrolidin-1-yl) -prop-2-en-1-one, reference compound], the half-inhibitory concentration (IC50) in test [1] is 142 nM. Moreover, the results for the GI50 (in test [2] (setting [5]); in test [3] (setting [5]); on Ba/F3-EGFR (WT) (setting [6])) were 3660 nM, 2260 nM and 2460 nM, respectively.

Take `C#Cc1c(-c2cnc3ccccc3c2)c2c(N)ncnc2n1C12CCC(NC(=O)c3ccnnc3)(CC1)C2` [Example 3, N-(4-(4-Amino-6-ethynyl-5-(quinolin-3-yl)-7H-pyrrolo[2,3-d]pyrimidin-7-yl)bicyclo-[2.2.1]heptan-1-yl)pyridazine-4-carboxamide]: in test [1], the 50% inhibitory concentration (IC50) is less than 0.3 nM. Further, the GI50 in test [2] (setting [5]) was found to be 56 nM; in test [3] (setting [5]) it was 529 nM; at Ba/F3-EGFR (WT) (setting [6]), 3330 nM.

As for `C#Cc1c(-c2cnc3ccccc3c2)c2c(N)ncnc2n1C12CCC(NC(=O)c3cccnc3)(CC1)C2` [Example 45], in test [1], the IC50 was less than 0.3 nM. For the same compound, the GI50 came to 42 nM in test [2] (setting [5]), 305 nM in test [3] (setting [5]) and 3400 nM on Ba/F3-EGFR (WT) (setting [6]).

On to `C#Cc1c(-c2cnc3ccccc3c2)c2c(N)ncnc2n1C12CCC(NC(C)=O)(CC1)C2` [Example 39, N-(4-(4-Amino-6-ethynyl-5-(quinolin-3-yl)-7H-pyrrolo[2,3-d]pyrimidin-7-yl)-bicyclo-[2.2.1]heptan-1-yl)acetamide], for which, in test [1], the 50% inhibitory concentration (IC50) was less than 0.3 nM. The GI50 came to 98 nM in test [2] (setting [4]), 658 nM in test [3] (setting [4]) and 2360 nM at Ba/F3-EGFR (WT) (setting [4]).

Compound `C#Cc1c(-c2cnc3ccccc3c2)c2c(N)ncnc2n1C12CCC(NC(=O)c3ncco3)(CC1)C2` [Example 46] displayed a concentration for half-maximal inhibition (IC50) in test [1] of less than 0.3 nM. For the same compound, the results for the GI50 (in test [2] (setting [5]); in test [3] (setting [5]); on Ba/F3-EGFR (WT) (setting [6])) were 19 nM, 204 nM and 2410 nM, respectively.

Consider `C#Cc1c(-c2cnc3ccccc3c2)c2c(N)ncnc2n1C12CCC(NC(=O)c3cncnc3)(CC1)C2` [Example 2, N-(4-(4-Amino-6-ethynyl-5-(quinolin-3-yl)-7H-pyrrolo[2,3-d]pyrimidin-7-yl)bicyclo-[2.2.1]heptan-1-yl)pyrimidine-5-carboxamide], for which the IC50 in test [1] was less than 0.3 nM. The GI50 amounted to 20 nM in test [2] (setting [5]), 185 nM in test [3] (setting [5]) and 2650 nM at Ba/F3-EGFR (WT) (setting [6]).

`C#Cc1c(-c2cnc3ccccc3c2)c2c(N)ncnc2n1C12CCC(NC(=O)c3cnccn3)(CC1)C2` [Example 48]: in test [1], the half-inhibitory concentration (IC50) was less than 0.3 nM. Moreover, the GI50 in test [2] (setting [5]) was 24 nM; in test [3] (setting [5]), 223 nM; at Ba/F3-EGFR (WT) (setting [6]), 2490 nM.

As to `C#Cc1c(-c2cnc3ccccc3c2)c2c(N)ncnc2n1C12CCC(NC(=O)c3nccs3)(CC1)C2` [Example 53], the IC50 in test [1] was less than 0.3 nM. For the same compound, the GI50 in test [2] (setting [4]) was 162 nM; in test [3] (setting [4]) it was 978 nM; on Ba/F3-EGFR (WT) (setting [4]), 3290 nM.

In the case of `C#Cc1c(-c2cnc3ccccc3c2)c2c(N)ncnc2n1C12CCC(NC(=O)c3ccco3)(CC1)C2` [Example 41], the half-maximal inhibitory concentration (IC50) in test [1] was less than 0.3 nM. Besides, the figures for the GI50 (in test [2] (setting [4]); in test [3] (setting [4]); on Ba/F3-EGFR (WT) (setting [4])) were 102 nM, 843 nM and 3240 nM, respectively.

On to `C#Cc1c(-c2cnc3ccccc3c2)c2c(N)ncnc2n1C12CCC(NC(=O)c3ccnn3C)(CC1)C2` [Example 24, N-(4-(4-Amino-6-ethynyl-5-(quinolin-3-yl)-7H-pyrrolo[2,3-d]pyrimidin-7-yl)bicyclo-[2.2.1]heptan-1-yl)-1-methyl-1H-pyrazole-5-carboxamide], for which, in test [1], the IC50 was less than 0.3 nM. The GI50 turned out to be 34 nM in test [2] (setting [5]), 403 nM in test [3] (setting [5]) and 3790 nM at Ba/F3-EGFR (WT) (setting [6]).

Regarding `C#Cc1c(-c2cnc3ccccc3c2)c2c(N)ncnc2n1C12CCC(N3CCOCC3)(CC1)C2` [Example 9, 6-Ethynyl-7-(4-morpholinobicyclo[2.2.1]heptan-1-yl)-5-(quinolin-3-yl)-7H-pyrrolo[2,3-d]pyrimidine-4-amine], the IC50 in test [1] is less than 0.3 nM. Moreover, the results for the GI50 (in test [2] (setting [4]); in test [3] (setting [4]); on Ba/F3-EGFR (WT) (setting [4])) were 59 nM, 592 nM and greater than 2000 nM, respectively.
